Assay results as given in US20250127803A1, “2'-FUCOSYLLACTOSE AND LACTO-N-NEOTETRAOSE FOR PREVENTING AND TREATING OVERWEIGHT” (HEALTH AND HAPPINESS (H&H) HONG KONG LTD, priority 2022, published 2025).
Where “and” joins values, the source holds several entries; their conditions need not be identical. Identical values can stand only once.

Tested on: C. elegans
Assay: Fat-reducing effect on C. elegans (Nile red lipid staining, fluorescence)
Type: in vivo
Conditions: for Fat Reduction (%) vs. Control: vs NG medium; for effectiveness in reducing the lipid level relative to Orlistat as reference: specific concentrations, summary statement
Description: Plates with a diameter of 100×15 mm have been filled with NGM (Nematode Growth Medium, as standard, hereafter NG medium (Fisher Scientific). Nile red (Sigma, St. Louis, MO, USA) was added to the solid surface of the NGM plates seeded at a final concentration of 0.05 μg/mL
For each of the experiments 2 NG medium plates were used, which had been supplemented with 2′-fucosyllactose in different amounts each, i.e. […] As negative control two plates with NG medium were used. As positive control two NG medium plates with Orlistat® were used.
60 synchronized worms at young adult stage were added to each plate with Escherichia coli strain OP50 as a food source and cultured under aerobic conditions at 20° C.
All worms were subjected to a lipid staining method, following the protocol previously described (Martorell et al., 2016).
All nematodes from each plate were transferred to M9 buffer and the fluorescence was measured using a FP-8300 system (JASCO Analytical Instrument, Easton, MD, USA). Fat deposition in worms was determined by one-way ANOVA test, using a Tukey's multiple comparison post-test.
Results are given as the mean±standard deviation. The statistical analyses were performed with GraphPad Prism 9 software. Statistical significance is indicated at 5%. […]

Compound | Fat Reduction (%) vs. Control (6 μg/mL in NG medium, positive control) | Fat Reduction (%) vs. Control (6 μg/mL in NG medium, positive control, listed as Orlistate) [%] | Fat Reduction (%) vs. Control (6 μg/mL in NG medium, positive control, listed as orlistat) [%] | Fat Reduction (%) vs. Control (0.01 mg/L in NG medium) [%] | Fat Reduction (%) vs. Control (0.1 mg/L in NG medium) [%] | Fat Reduction (%) vs. Control (1 mg/L in NG medium) [%] | Fat Reduction (%) vs. Control (10 mg/L in NG medium) [%] | fat reduction compared to negative control conditions (NG medium) (10 mg/mL) [%] | effectiveness relative to the positive control orlistat (10 mg/ml) | Fat Reduction (%) vs. Control (30 mg/L in NG medium) [%] | effectiveness in reducing the lipid level relative to Orlistat as reference | fat reduction compared to negative control conditions (NG medium) (1 mg/mL) [%] | effectiveness relative to the positive control orlistat (1 mg/ml) | effect on fat content in nematodes (the lower and higher doses)
CCCCCCCCCCC[C@@H](C[C@@H]1OC(=O)[C@H]1CCCCCC)OC(=O)[C@H](CC(C)C)NC=O [Orlistat, (25)-2-Formylamino-4-methylpentansäure-(1S)-1-{[(35,4S)-3-hexyl-2-oxo-4-oxetanyl]methyl}dodecylester, reference compound] | 31.14% and 30.40% | 31.14 | 30.4 |  |  |  |  |  |  |  |  |  |  | 
CC(=O)N[C@H]1[C@H](O[C@H]2[C@@H](O)[C@@H](CO)O[C@@H](O[C@H]3[C@H](O)[C@@H](O)C(O)O[C@@H]3CO)[C@@H]2O)O[C@H](CO)[C@@H](O[C@@H]2O[C@H](CO)[C@H](O)[C@H](O)[C@H]2O)[C@@H]1O (mixture of isomers) [LNnT, Lacto-N-neotetraose] |  |  |  | −5.01 | −0.08 | 3.08 | 14.05 | 14.05 | about 45% | −2.39 | 40-60% |  |  | 
2′-fucosyllactose [2′-FL] |  |  |  | −2.38 | 11.37 | 23.61 | 25.35 | 25.3 | ~83% | 5.28 | 70-90% | 23.6 | about 78% | no functional effect
